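Values below derive from 48-hour exposures of cells grown in 96-well plates, with endpoints linearly interpolated between the two concentrations bracketing the appropriate inhibition level. GI50: concentration for 50% inhibition of growth.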 The source made the active and inactive calls. No stated cut-off is given here; in the data, active = GI50 up to about 1.1 µM and inactive = higher.
How the values were obtained:
Assay in all cases: growth of human tumour cells (NCI), 48 h
SW-620 = test system: SW-620
HT-29 = test system: HT-29
K562 = test system: K562
TK-10 = test system: TK-10
HCT-15 = test system: HCT-15
RPMI-8226 = test system: RPMI-8226
DMS-273 = test system: DMS-273
ACHN = test system: ACHN
SF-268 = test system: SF-268
SK-MEL-5 = test system: SK-MEL-5
DLD-1 = test system: DLD-1
HCC 2998 = test system: HCC 2998
HOP-62 = test system: HOP-62
IGROV-1 = test system: IGROV-1
SNB-19 = test system: SNB-19
A549 = test system: A549
SF-295 = test system: SF-295

| SMILES | GI50 (SW-620) | GI50 (HT-29) | GI50 (K562) | GI50 (TK-10) | GI50 (HCT-15) [µM] | GI50 (RPMI-8226) | GI50 (DMS-273) | GI50 (ACHN) | GI50 (SF-268) | GI50 (SK-MEL-5) | GI50 (DLD-1) | GI50 (HCC 2998) | GI50 (HOP-62) | GI50 (IGROV-1) | GI50 (SNB-19) | GI50 (A549) | GI50 (SF-295) |
| --- | --- | --- | --- | --- | --- | --- | --- | --- | --- | --- | --- | --- | --- | --- | --- | --- | --- |
| c1ccc(SC(CCCCOC2CCCCO2)Sc2ccccc2)cc1 (stereo not drawn) | 76.4 µM (inactive) | 52 µM (inactive) | 52 µM (inactive) | > 100 µM (inactive) | 91.2 | 32.4 µM (inactive) | > 100 µM (inactive) | 59.7 µM (inactive) | 44.5 µM (inactive) | 30.5 µM (inactive) | > 100 µM (inactive) | > 100 µM (inactive) | > 100 µM (inactive) | 82.8 µM (inactive) | > 100 µM (inactive) | 93.3 µM (inactive) | > 100 µM (inactive) |
| CCOC(=O)C[C@@H](C)[C@]1(C(=O)OC)CCCC1=O | > 100 µM (inactive) | > 65.8 µM (inactive) | > 100 µM (inactive) | > 100 µM (inactive) | > 100 | > 49.3 µM (inactive) | > 70.6 µM (inactive) | > 100 µM (inactive) | > 90.8 µM (inactive) | > 100 µM (inactive) | > 47.2 µM (inactive) | > 100 µM (inactive) | > 100 µM (inactive) | > 100 µM (inactive) | > 100 µM (inactive) | > 100 µM (inactive) | > 100 µM (inactive) |
| COC(=O)CC1NC(=O)C1C(C)(OC)OC (stereo not drawn) | > 100 µM (inactive) | > 100 µM (inactive) | > 100 µM (inactive) | > 100 µM (inactive) | > 100 | > 100 µM (inactive) | > 100 µM (inactive) | > 100 µM (inactive) | > 100 µM (inactive) | > 100 µM (inactive) | > 100 µM (inactive) | > 100 µM (inactive) | > 100 µM (inactive) | > 100 µM (inactive) | > 100 µM (inactive) | > 100 µM (inactive) | > 100 µM (inactive) |
| CC(=O)OC1COC(Nc2ccc(C(C)=O)cc2)C(OC(C)=O)C1OC(C)=O (stereo not drawn) | > 100 µM (inactive) | > 100 µM (inactive) | > 100 µM (inactive) | > 100 µM (inactive) | > 100 | > 100 µM (inactive) | > 100 µM (inactive) | > 100 µM (inactive) | > 100 µM (inactive) | > 100 µM (inactive) | > 100 µM (inactive) | > 100 µM (inactive) | > 100 µM (inactive) | > 100 µM (inactive) | > 100 µM (inactive) | > 100 µM (inactive) | > 100 µM (inactive) |
| CCOC(OC1=CCCC1)C(C)[Se]c1ccccc1 (stereo not drawn) |  | 23.3 µM (inactive) | 55.5 µM (inactive) | > 100 µM (inactive) | 16.8 | 18.1 µM (inactive) | 16.9 µM (inactive) | 61.8 µM (inactive) | 17.6 µM (inactive) | 18.3 µM (inactive) | 21.6 µM (inactive) | 32.4 µM (inactive) | > 100 µM (inactive) | 41 µM (inactive) | > 100 µM (inactive) | 34.8 µM (inactive) | 31.5 µM (inactive) |
| CCOC(=O)NC(=O)c1cn(CCCCCCCCCCC(=O)N2CCN(CCn3cc(C(=O)NC(=O)OCC)c(=O)[nH]c3=O)CC2)c(=O)[nH]c1=O | > 100 µM (inactive) | > 100 µM (inactive) | > 100 µM (inactive) | > 100 µM (inactive) | > 100 | > 100 µM (inactive) | > 100 µM (inactive) | > 100 µM (inactive) |  | > 100 µM (inactive) | > 100 µM (inactive) | > 100 µM (inactive) | > 100 µM (inactive) | > 100 µM (inactive) | > 100 µM (inactive) | > 100 µM (inactive) | > 100 µM (inactive) |
| COC1OC2COC(c3ccccc3)OC2C(O)C1Br (stereo not drawn) | > 100 µM (inactive) | > 100 µM (inactive) | > 100 µM (inactive) | > 100 µM (inactive) | > 100 | > 100 µM (inactive) | > 100 µM (inactive) | > 100 µM (inactive) | > 100 µM (inactive) | > 100 µM (inactive) | > 100 µM (inactive) | > 100 µM (inactive) | > 100 µM (inactive) | > 100 µM (inactive) | > 100 µM (inactive) | > 100 µM (inactive) | > 100 µM (inactive) |
| CC(C)N1CCC2(CC1)NNc1ncccc1-n1cccc12 | > 100 µM (inactive) | > 100 µM (inactive) | > 100 µM (inactive) | > 100 µM (inactive) | > 10 | > 100 µM (inactive) | > 100 µM (inactive) | > 100 µM (inactive) | > 100 µM (inactive) | > 100 µM (inactive) | > 100 µM (inactive) | > 100 µM (inactive) | > 100 µM (inactive) |  | > 100 µM (inactive) | > 100 µM (inactive) | > 100 µM (inactive) |
